Data taken from publication PMC3466212, “Novel AChE Inhibitors for Sustainable Insecticide Resistance Management” (PLoS ONE, 2012).

What was measured:
G119S AChE1 = molecular target: T1, G119S AChE1 (Culex pipiens, UniProt Q86GC8, G247S); assay: biochemical; type: biochemical; settings: for IC50: recombinant OP-insensitive G119S C. pipiens AChE1, 15 min incubation, acetylthiocholine, read-out: IC50 G119S
T1 construct: made in house; host or cells: Drosophila S2 cells
Protocol: Production of C. pipiens WT and mutated AChE1s in Drosophila S2 cells was already described. The chemical library (ChemBridge, 3,000 compounds) screening was performed in duplicate on G119S recombinant AChE1. Chemicals were made soluble in ethanol or dimethylsulphoxide (DMSO), and then diluted at 300 µM in ethanol for storage. […] PTF analogs were analyzed in dose-response experiments (10-fold serial dilutions from 3 mM to 30 nM), using recombinant WT and G119S AChE1 or mosquito head extracts (heads cut from frozen mosquitoes, homogenized in 400 µl PB containing 1% Triton X-100 and cleared by centrifugation at 9,000×g for 3 min). Depending on compound availability, two to five replicates were performed with distinct batches of enzyme. […] IC50 was estimated by nonlinear least square regression. IC50 was also measured on AChE1 from susceptible and resistant mosquito larvae extracts.

[1] = test system: C. pipiens Slab strain larvae; assay: Larval bioassay, Slab strain (OP-susceptible); settings: fourth-instar larvae, 24 hours exposure, 300 µM
Source text: Three C. pipiens strains were used: the susceptible reference Slab strain, homozygous for ace-1 ^S [39], the resistant reference SR strain, carrying the genetical background of Slab but homozygous for the G119S mutation, allele ace-1 ^R [21] and the Ducos strain, carrying the genetical background of Slab but homozygous for an ace-1 duplication, with one ace-1^S and ace-1^R copy in tandem. Culex pipiens heterozygous larvae (Slab×SR) were obtained by crossing Slab males and SR females. Two A. gambiae reference strains (S molecular form) were used: the susceptible strain Kisumu, homozygous for ace-1 ^S, collected in Kenya in 1953 and maintained since then under laboratory conditions and the resistant Acerkis strain, carrying the genetical background of Kisumu but homozygous for an ace-1^R allele from a population collected in Bobo-Dioulasso, Burkina Faso [41].
Insecticidal activity was determined by performing bioassays on fourth-instar larvae as described in [42]. Each compound was dissolved in ethanol. Propoxur (CX) and chlorpyrifos (OP) were used as references. For each compound, we first tested mortality after a 24-hour exposure at 300 µM. […] Mortality data were analyzed by the log-probit program. This program takes into account natural mortality and provides lethal doses (LD) and slopes for each mortality line; it also computes resistance ratios (RR) for each LD, with 95% confidence intervals.

[2] = test system: C. pipiens SR strain larvae; assay: Larval bioassay, SR strain (OP-resistant); settings: fourth-instar larvae, 24 hours exposure, 300 µM
Source text: Three C. pipiens strains were used: the susceptible reference Slab strain, homozygous for ace-1 ^S [39], the resistant reference SR strain, carrying the genetical background of Slab but homozygous for the G119S mutation, allele ace-1 ^R [21] and the Ducos strain, carrying the genetical background of Slab but homozygous for an ace-1 duplication, with one ace-1^S and ace-1^R copy in tandem. Culex pipiens heterozygous larvae (Slab×SR) were obtained by crossing Slab males and SR females.
Insecticidal activity was determined by performing bioassays on fourth-instar larvae as described in [42]. Each compound was dissolved in ethanol. Propoxur (CX) and chlorpyrifos (OP) were used as references. For each compound, we first tested mortality after a 24-hour exposure at 300 µM. […] Mortality data were analyzed by the log-probit program.

WT AChE1 = WT AChE1 (Culex pipiens, UniProt Q86GC8); assay: AChE assay (Ellman), dose-response on recombinant WT AChE1; type: biochemical; set-up: made in house; host or cells: Drosophila S2 cells; settings: recombinant wild-type C. pipiens AChE1; 15 min incubation; acetylthiocholine; read-out: IC50 WT
Protocol: Production of C. pipiens WT and mutated AChE1s in Drosophila S2 cells was already described. The chemical library (ChemBridge, 3,000 compounds) screening was performed in duplicate on G119S recombinant AChE1. Chemicals were made soluble in ethanol or dimethylsulphoxide (DMSO), and then diluted at 300 µM in ethanol for storage. Compounds (30 µM final concentration) were incubated for 15 min at room temperature with 100 µl of G119S recombinant AChE1 then 100 µl of substrate (acetylthiocholine, 1.6 mM, Sigma-Aldrich) was added and the residual activity was quantified by measuring the optical density at 412 nm, as described by Ellman et al.. PTF analogs were analyzed in dose-response experiments (10-fold serial dilutions from 3 mM to 30 nM), using recombinant WT and G119S AChE1 or mosquito head extracts (heads cut from frozen mosquitoes, homogenized in 400 µl PB containing 1% Triton X-100 and cleared by centrifugation at 9,000×g for 3 min). Depending on compound availability, two to five replicates were performed with distinct batches of enzyme. […] IC50 was estimated by nonlinear least square regression. IC50 was also measured on AChE1 from susceptible and resistant mosquito larvae extracts.

Row | Structure (SMILES) | IC50 (G119S AChE1) [µM] | Mortality at 300 µM, Slab [1] [%] | Mortality at 300 µM, SR [2] [%] | IC50 (WT AChE1) [µM] | inhibition in primary screen (hydrolysis of acetylthiocholine) (G119S AChE1; 30 µM final concentration, duplicate, G119S recombinant AChE1)
1 | Cc1ccc(C=C2C(=O)NC(=O)N(c3cccc(Cl)c3Cl)C2=O)o1 [PTF-21] | 4.8 | 0 | 0 | 5 | –
2 | Cc1ccc(C=C2C(=O)NC(=O)N(c3cccc(Br)c3)C2=O)o1 [PTF-22] | 1.9 | 68 | 97 | 1.5 | –
3 | CCCCN1C(=O)C(=Cc2ccc(C)o2)C(=O)NC1=S [PTF-23] | 15.5 | 24 | 60 | 12.1 | –
4 | Cc1ccc(N2C(=O)C(=Cc3ccc(C)o3)C(=O)NC2=S)cc1 [PTF-24] | 1.9 | 0 | 0 | 1.3 | 80–87%
5 | CCc1ccc(N2C(=O)C(=Cc3ccc(C)o3)C(=O)NC2=S)cc1 [PTF-26] | 16 | 100 | 65 | 9 | –
6 | COc1ccc(N2C(=O)C(=Cc3ccc(C)o3)C(=O)NC2=S)cc1 [PTF-27] | 5.9 | 12 | 15 | 1.7 | –
7 | COc1ccccc1N1C(=O)C(=Cc2ccc(C)o2)C(=O)NC1=S [PTF-28] | 1.8 | 0 | 0 | 2.1 | –
8 | COc1ccc(N2C(=O)C(=Cc3ccc(C)o3)C(=O)NC2=S)c(OC)c1 [PTF-30] | 1.3 | 25 | 25 | 2.8 | –
9 | Cc1ccc(C=C2C(=O)NC(=S)N(c3ccc(C(=O)O)cc3)C2=O)o1 [PTF-31] | 0.2 | 20 | 20 | 0.5 | –
10 | Cc1ccc(C=C2C(=O)NC(=S)N(CC3CCCO3)C2=O)o1 (centres unmarked) [PTF-32] | 2.3 | 0 | 0 | 2.1 | –
11 | Cc1ccc(C=C2C(=O)NC(=S)N(c3ccc(F)cc3)C2=O)o1 [PTF-33] | 22 | 16 | 77 | 490 | –
12 | Cc1ccc(C=C2C(=O)NC(=S)N(CCc3ccc(F)cc3)C2=O)o1 [PTF-34] | 38 | 0 | 0 | 24 | –
13 | Cc1ccc(C=C2C(=O)NC(=S)N(c3ccc(Cl)cc3)C2=O)o1 [PTF-35] | 8.7 | 5 | 49 | 8.7 | –
14 | Cc1ccc(C=C2C(=O)NC(=S)N(c3cccc(Cl)c3)C2=O)o1 [PTF-36] | 8 | 30 | 40 | 11.8 | –
15 | Cc1ccc(C=C2C(=O)NC(=S)N(c3ccc(Br)cc3)C2=O)o1 [PTF-37] | 142 | 0 | 35 | 2120 | –
16 | CN1C(=O)C(=Cc2ccco2)C(=O)N(C)C1=O [PTF-38] | 357 | 70 | 90 | 1190 | –
17 | CN1C(=O)C(=Cc2ccc([N+](=O)[O-])o2)C(=O)N(C)C1=O [PTF-40] | 55 | 0 | 0 | 83 | –

Row | Structure (SMILES) | IC50 (G119S AChE1) [µM] | Mortality at 300 µM, Slab [1] [%] | Mortality at 300 µM, SR [2] [%] | IC50 (WT AChE1) [µM] | inhibition in primary screen (hydrolysis of acetylthiocholine) (G119S AChE1; 30 µM final concentration, duplicate, G119S recombinant AChE1)
18 | CN1C(=O)C(=Cc2ccc(N(C)C)o2)C(=O)N(C)C1=O [PTF-41] | 132 | 20 | 20 | 175 | –
19 | CCN(CC)c1ccc(C=C2C(=O)N(C)C(=O)N(C)C2=O)o1 [PTF-42] | 1040 | 0 | 0 | 720 | –
20 | CN1C(=O)C(=Cc2ccc(-c3ccccc3C(=O)O)o2)C(=O)N(C)C1=O [PTF-43] | 8.3 | 0 | 0 | 6.7 | –
21 | CN1C(=O)C(=Cc2ccc(-c3cccc(C(=O)O)c3)o2)C(=O)N(C)C1=O [PTF-44] | 0.6 | 0 | 0 | 0.6 | –
22 | CC(=O)c1ccc(-c2ccc(C=C3C(=O)N(C)C(=O)N(C)C3=O)o2)cc1 [PTF-45] | 1.1 | 0 | 0 | 3.4 | –
23 | CN1C(=O)C(=Cc2ccc(-c3ccc(S(N)(=O)=O)cc3)o2)C(=O)N(C)C1=O [PTF-46] | 5.2 | 0 | 0 | 1.7 | –
24 | CN1C(=O)C(=Cc2ccc(Sc3ccccc3)o2)C(=O)N(C)C1=O [PTF-47] | 1.3 | 0 | 0 | 3 | –
25 | CN1C(=O)C(=Cc2ccc(N3CCCC3)o2)C(=O)N(C)C1=O [PTF-48] | 1520 | 0 | 0 | 755 | –
26 | CN1C(=O)C(=Cc2ccc(N3CCCCC3)o2)C(=O)N(C)C1=O [PTF-49] | 65.5 | 13 | 0 | 97 | –
27 | CN1C(=O)C(=Cc2ccc(N3CCOCC3)o2)C(=O)N(C)C1=O [PTF-50] | 145 | 0 | 0 | 260 | –
28 | CN1CCN(c2ccc(C=C3C(=O)N(C)C(=O)N(C)C3=O)o2)CC1 [PTF-52] | 52 | 0 | 0 | 860 | –
29 | CN1C(=O)C(=Cc2ccc(-c3ccc4c(c3)COC4=O)o2)C(=O)N(C)C1=O [PTF-53] | 5.6 | 0 | 0 | 0.6 | –
30 | O=C1NC(=O)N(c2ccccc2)C(=O)C1=Cc1ccco1 [PTF-54] | 737 | 100 | 100 | 1390 | –
31 | O=C1NC(=O)N(c2ccccc2)C(=O)C1=Cc1ccc(Br)o1 [PTF-55] | 32.6 | 0 | 0 | 17 | –
32 | CCOC(=O)c1ccc(-c2ccc(C=C3C(=O)NC(=O)N(c4ccccc4)C3=O)o2)cc1 [PTF-56] | 1.9 | 0 | 0 | 4.9 | –
33 | O=C1NC(=O)N(c2ccccc2)C(=O)C1=Cc1ccc(-c2ccc(C(=O)O)cc2)o1 [PTF-57] | 5.4 | 0 | 0 | 11.3 | –
34 | O=C1NC(=O)N(c2ccccc2)C(=O)C1=Cc1ccc(-c2cccc(C(=O)O)c2)o1 [PTF-58] | 9.3 | 0 | 0 | 6.7 | –
